*1 amine or outer side, *2 acyl side, *3 side chain or, on linkers, in order; H or OH if unused. Where a SMILES comes first, the peptide text is derived from it. Side-chain parts run from the residue outwards. [ ]: non-standard residue; d: D form. The star is where a group is joined. C20 diacid = O=C(O)CCCCCCCCCCCCCCCCCCC(=O)*; γGlu = O=C(O)[C@H](CCC(=O)[*:2])N[*:1]; AEEA = NCCOCCOCC(=O)O; Aib = CC(C)(N)C(=O)O
Legend:
[1] = target: T1, human GLP-1 R (Homo sapiens, UniProt P43220); assay: Human GLP-1 receptor (GLP-1 R) activity assay, cAMP induction (AlphaScreen) in HEK293 cells; format: cell-based; conditions: Table 3; most comprehensive data; read-out: hGLP-1-R cAMP EC50 average value
T1 construct: expressed in transfected cells
T1 sequence (P43220 24-463): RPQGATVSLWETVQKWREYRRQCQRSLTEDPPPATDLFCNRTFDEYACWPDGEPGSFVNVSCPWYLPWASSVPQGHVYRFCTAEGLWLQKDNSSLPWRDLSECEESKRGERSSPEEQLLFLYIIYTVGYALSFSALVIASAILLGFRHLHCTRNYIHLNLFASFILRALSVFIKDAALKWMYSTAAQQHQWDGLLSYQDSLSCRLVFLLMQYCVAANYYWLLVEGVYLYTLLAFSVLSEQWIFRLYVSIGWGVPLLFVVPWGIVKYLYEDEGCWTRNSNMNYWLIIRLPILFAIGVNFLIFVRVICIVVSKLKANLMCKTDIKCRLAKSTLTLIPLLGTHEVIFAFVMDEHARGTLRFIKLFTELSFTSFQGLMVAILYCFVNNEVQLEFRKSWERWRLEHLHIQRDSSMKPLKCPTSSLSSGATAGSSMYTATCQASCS
Method in brief: (§1)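 Stable HEK293 clones expressing human GIP R or GLP-1 R, seeded 1 day before; cells washed in Tyrode's buffer (10 mM HEPES, pH 7.4), stimulated, then lysed. cAMP measured by AlphaScreen bead competition (1 h, room temperature, dark). EC50 = concentration giving half-maximal cAMP elevation, from curves of absolute cAMP (nM) vs log concentration.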

[2] = target: T2, human GIP R (Homo sapiens, UniProt P48546); assay: Human GIP receptor (GIP R) activity assay, cAMP induction (AlphaScreen) in HEK293 cells; format: cell-based; conditions: Table 3; most comprehensive data; read-out: hGIP-R cAMP EC50 average value
T2 construct: expressed in transfected cells
T2 sequence (P48546 22-466): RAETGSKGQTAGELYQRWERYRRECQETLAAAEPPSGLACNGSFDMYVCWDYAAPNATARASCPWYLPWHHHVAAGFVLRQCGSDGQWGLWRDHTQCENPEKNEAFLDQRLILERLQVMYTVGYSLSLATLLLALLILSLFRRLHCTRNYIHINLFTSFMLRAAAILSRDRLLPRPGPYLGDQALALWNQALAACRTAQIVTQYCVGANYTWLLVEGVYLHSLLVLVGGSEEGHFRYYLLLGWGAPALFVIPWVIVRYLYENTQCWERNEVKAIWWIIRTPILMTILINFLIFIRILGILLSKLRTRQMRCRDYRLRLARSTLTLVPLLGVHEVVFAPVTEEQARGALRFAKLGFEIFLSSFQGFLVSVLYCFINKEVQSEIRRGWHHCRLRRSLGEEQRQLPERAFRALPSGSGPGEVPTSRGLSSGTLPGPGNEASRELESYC
Method in brief: as §1

Structure (SMILES) | EC50 [1] | EC50 [2]
CC[C@H](C)[C@H](NC(=O)[C@H](CO)NC(=O)[C@H](Cc1ccc(O)cc1)NC(=O)[C@H](CC(=O)O)NC(=O)[C@H](CO)NC(=O)[C@@H](NC(=O)[C@H](Cc1ccccc1)NC(=O)[C@@H](NC(=O)CNC(=O)[C@H](CCC(=O)O)NC(=O)C(C)(C)NC(=O)[C@@H](N)Cc1ccc(O)cc1)[C@@H](C)O)[C@@H](C)O)C(=O)N[C@@H](C)C(=O)N[C@@H](CC(C)C)C(=O)N[C@@H](CC(=O)O)C(=O)N[C@@H](CCC(=O)O)C(=O)N[C@@H](CCCCNC(=O)COCCOCCNC(=O)COCCOCCNC(=O)CC[C@H](NC(=O)CCCCCCCCCCCCCCCCCCC(=O)O)C(=O)O)C(=O)N[C@@H](C)C(=O)N[C@@H](CCC(N)=O)C(=O)N[C@@H](CCCNC(=N)N)C(=O)N[C@@H](C)C(=O)N[C@@H](Cc1ccccc1)C(=O)N[C@H](C(=O)N[C@@H](CCC(=O)O)C(=O)N[C@@H](Cc1c[nH]c2ccccc12)C(=O)N[C@@H](CC(C)C)C(=O)N[C@@H](CC(C)C)C(=O)N[C@@H](C)C(=O)N[C@@H](CCC(N)=O)C(=O)NCC(=O)N1CCC[C@H]1C(=O)N[C@@H](CO)C(=O)N[C@@H](CO)C(=O)NCC(=O)N[C@@H](C)C(=O)N1CCC[C@H]1C(=O)N1CCC[C@H]1C(=O)N1CCC[C@H]1C(=O)N[C@@H](CO)C(N)=O)C(C)C [Compound 43] (H-Y[Aib]EGTFTSDYSIALDEK([AEEA-AEEA-γGlu-C20 diacid])AQRAFVEWLLAQGPSSGAPPPS-NH2) | 16 pM | 5 pM
CC[C@H](C)[C@H](NC(=O)[C@H](CO)NC(=O)[C@H](Cc1ccc(O)cc1)NC(=O)[C@H](CC(=O)O)NC(=O)[C@H](CO)NC(=O)[C@@H](NC(=O)[C@H](Cc1ccccc1)NC(=O)[C@@H](NC(=O)CNC(=O)[C@H](CCC(=O)O)NC(=O)C(C)(C)NC(=O)[C@@H](N)Cc1ccc(O)cc1)[C@@H](C)O)[C@@H](C)O)C(=O)N[C@@H](C)C(=O)N[C@@H](CC(C)C)C(=O)N[C@@H](CC(=O)O)C(=O)N[C@@H](CCC(=O)O)C(=O)N[C@@H](CCCCNC(=O)COCCOCCNC(=O)COCCOCCNC(=O)CC[C@H](NC(=O)CCCCCCCCCCCCCCCCCCC(=O)O)C(=O)O)C(=O)N[C@@H](C)C(=O)N[C@@H](CCC(N)=O)C(=O)N[C@@H](CCCNC(=N)N)C(=O)N[C@@H](C)C(=O)N[C@@H](Cc1ccccc1)C(=O)N[C@H](C(=O)N[C@@H](CCC(=O)O)C(=O)N[C@@H](Cc1c[nH]c2ccccc12)C(=O)N[C@@H](CC(C)C)C(=O)N[C@@H](CC(C)C)C(=O)N[C@@H](C)C(=O)N[C@@H](C)C(=O)NCC(=O)N1CCC[C@H]1C(=O)N[C@@H](CO)C(=O)N[C@@H](CO)C(=O)NCC(=O)N[C@@H](C)C(=O)N1CCC[C@H]1C(=O)N1CCC[C@H]1C(=O)N1CCC[C@H]1C(=O)N[C@@H](CO)C(N)=O)C(C)C [Compound 44] (H-Y[Aib]EGTFTSDYSIALDEK([AEEA-AEEA-γGlu-C20 diacid])AQRAFVEWLLAAGPSSGAPPPS-NH2) | 15 pM | 7 pM
CC[C@H](C)[C@H](NC(=O)[C@H](CO)NC(=O)[C@H](Cc1ccc(O)cc1)NC(=O)[C@H](CC(=O)O)NC(=O)[C@H](CO)NC(=O)[C@@H](NC(=O)[C@H](Cc1ccccc1)NC(=O)[C@@H](NC(=O)CNC(=O)[C@H](CCC(=O)O)NC(=O)C(C)(C)NC(=O)[C@@H](N)Cc1ccc(O)cc1)[C@@H](C)O)[C@@H](C)O)C(=O)N[C@@H](C)C(=O)N[C@@H](CC(C)C)C(=O)N[C@@H](CC(=O)O)C(=O)N[C@@H](CCCCN)C(=O)N[C@@H](CCCCNC(=O)COCCOCCNC(=O)COCCOCCNC(=O)CC[C@H](NC(=O)CCCCCCCCCCCCCCCCCCC(=O)O)C(=O)O)C(=O)N[C@@H](C)C(=O)N[C@@H](CCC(N)=O)C(=O)N[C@@H](CCCCN)C(=O)N[C@@H](C)C(=O)N[C@@H](Cc1ccccc1)C(=O)N[C@H](C(=O)N[C@@H](CCC(=O)O)C(=O)N[C@@H](Cc1c[nH]c2ccccc12)C(=O)N[C@@H](CC(C)C)C(=O)N[C@@H](CC(C)C)C(=O)N[C@@H](C)C(=O)N[C@@H](C)C(=O)NCC(=O)N1CCC[C@H]1C(=O)N[C@@H](CO)C(=O)N[C@@H](CO)C(=O)NCC(=O)N[C@@H](C)C(=O)N1CCC[C@H]1C(=O)N1CCC[C@H]1C(=O)N1CCC[C@H]1C(=O)N[C@@H](CO)C(N)=O)C(C)C [Compound 45] (H-Y[Aib]EGTFTSDYSIALDKK([AEEA-AEEA-γGlu-C20 diacid])AQKAFVEWLLAAGPSSGAPPPS-NH2) | 24 pM | 5 pM
CC[C@H](C)[C@H](NC(=O)[C@H](CO)NC(=O)[C@H](Cc1ccc(O)cc1)NC(=O)[C@H](CC(=O)O)NC(=O)[C@H](CO)NC(=O)[C@@H](NC(=O)[C@H](Cc1ccccc1)NC(=O)[C@@H](NC(=O)CNC(=O)[C@H](CCC(=O)O)NC(=O)C(C)(C)NC(=O)[C@@H](N)Cc1ccc(O)cc1)[C@@H](C)O)[C@@H](C)O)C(=O)N[C@@H](Cc1ccc(O)cc1)C(=O)N[C@@H](CC(C)C)C(=O)N[C@@H](CC(=O)O)C(=O)N[C@@H](CCCCN)C(=O)N[C@@H](CCCCNC(=O)COCCOCCNC(=O)COCCOCCNC(=O)CC[C@H](NC(=O)CCCCCCCCCCCCCCCCCCC(=O)O)C(=O)O)C(=O)N[C@@H](C)C(=O)N[C@@H](CCC(N)=O)C(=O)N[C@@H](CCCNC(=N)N)C(=O)N[C@@H](CCC(=O)O)C(=O)N[C@@H](Cc1ccccc1)C(=O)N[C@H](C(=O)N[C@@H](CCC(=O)O)C(=O)N[C@@H](Cc1c[nH]c2ccccc12)C(=O)N[C@@H](CC(C)C)C(=O)N[C@@H](CC(C)C)C(=O)N[C@@H](C)C(=O)N[C@@H](CCC(N)=O)C(=O)NCC(=O)N1CCC[C@H]1C(=O)N[C@@H](CO)C(=O)N[C@@H](CO)C(=O)NCC(=O)N[C@@H](C)C(=O)N1CCC[C@H]1C(=O)N1CCC[C@H]1C(=O)N1CCC[C@H]1C(=O)N[C@@H](CO)C(N)=O)C(C)C [Compound 46] (H-Y[Aib]EGTFTSDYSIYLDKK([AEEA-AEEA-γGlu-C20 diacid])AQREFVEWLLAQGPSSGAPPPS-NH2) | 10 pM | 6 pM
CC[C@H](C)[C@H](NC(=O)[C@H](CO)NC(=O)[C@H](Cc1ccc(O)cc1)NC(=O)[C@H](CC(=O)O)NC(=O)[C@H](CO)NC(=O)[C@@H](NC(=O)[C@H](Cc1ccccc1)NC(=O)[C@@H](NC(=O)CNC(=O)[C@H](CCC(=O)O)NC(=O)C(C)(C)NC(=O)[C@@H](N)Cc1ccc(O)cc1)[C@@H](C)O)[C@@H](C)O)C(=O)N[C@@H](C)C(=O)N[C@@H](CC(C)C)C(=O)N[C@@H](CC(=O)O)C(=O)N[C@@H](CCCCN)C(=O)N[C@@H](CCCCNC(=O)COCCOCCNC(=O)COCCOCCNC(=O)CC[C@H](NC(=O)CCCCCCCCCCCCCCCCCCC(=O)O)C(=O)O)C(=O)N[C@@H](C)C(=O)N[C@@H](CCC(N)=O)C(=O)N[C@@H](CCCNC(=N)N)C(=O)N[C@@H](CCC(=O)O)C(=O)N[C@@H](Cc1ccccc1)C(=O)N[C@H](C(=O)N[C@@H](CCC(=O)O)C(=O)N[C@@H](Cc1c[nH]c2ccccc12)C(=O)N[C@@H](CC(C)C)C(=O)N[C@@H](CC(C)C)C(=O)N[C@@H](C)C(=O)N[C@@H](CCC(N)=O)C(=O)NCC(=O)N1CCC[C@H]1C(=O)N[C@@H](CO)C(=O)N[C@@H](CO)C(=O)NCC(=O)N[C@@H](C)C(=O)N1CCC[C@H]1C(=O)N1CCC[C@H]1C(=O)N1CCC[C@H]1C(=O)N[C@@H](CO)C(N)=O)C(C)C [Compound 47] (H-Y[Aib]EGTFTSDYSIALDKK([AEEA-AEEA-γGlu-C20 diacid])AQREFVEWLLAQGPSSGAPPPS-NH2) | 16 pM | 5 pM

Reference: US10093713B2, “GIP-GLP-1 dual agonist compounds and methods” (priority 2013, dated 2018)
